Measured values published in patent US11752155B2, “Treatment of autism spectrum disorders, obsessive-compulsive disorder and anxiety disorders” (Rugen Holdings (Cayman) Limited, priority 2016, dated 2023).
Like-named read-outs stand apart in the source and are kept apart here.

Columns and labels:
human NR1/NR2B = human NR1/NR2B (Homo sapiens (Human), UniProt Q05586+Q13224); assay: NR2B antagonist activity: calcium influx (Fluo-4) assay in HEK293 cells; format: cell-based; details: read-out: NR2B IC50
Summary of the method: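 HEK293 cells expressing NR1/NR2A or NR1/NR2B, loaded with fluo-4-AM, preincubated 10 min at room temperature with compound in Hanks buffer/0.1% BSA.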

human NR1/NR2A = human NR1/NR2A (Homo sapiens (Human), UniProt Q05586+Q12879); assay: NR2A antagonist activity: calcium influx (Fluo-4) assay in HEK293 cells; format: cell-based; details: Table 1.1B; read-out: NR2A IC50
Method: Activation of the NR2A or NR2B subtype of NMDA receptor with glutamate as an agonist and glycine co-agonist on these cells results in calcium influx, which can be monitored with fluorescent indicator Fluo-4.
For experiments, the cells were seeded onto poly-D-lysine-coated 96-well black plates with clear bottom (Corning) at a density of ˜50,000 cells/well. After overnight culture, the growth medium was removed from the wells and the cells were incubated at 37° C. for 60 minutes in Hanks buffer containing 4 μM fluo-4-AM (Invitrogen) and 0.1% bovine serum albumin (BSA). After dye-loading, the cells were washed three times with Hanks buffer and incubated for 10 minutes at room temperature with various concentrations of test compounds prepared in Hanks buffer with 0.1% BSA. The cell plates were placed onto an FDSS Cell fluorescence reader (Hamamatsu). After 20 seconds of reading background fluorescence, agonist glutamate at final 100 µM and co-agonist glycine at final 50 μM were added to the cells to activate the receptor, and the resulting fluorescence changes were recorded and quantified. Based on the changes in fluorescence intensity, the pharmacological effect of test compounds was analyzed and the IC50 values derived from a non-linear least squares fitting of the concentration-dependent response to a standard logistic equation using Prism (Graphpad Software, Inc.): Amplitude=Max Amplitude/(1+(IC50/[antagonist])^n).

[1] = target: native rat brain NR2B receptors (Rattus norvegicus (Rat), UniProt P35439+Q00960); assay: NR2B radioligand binding assay in rat brain using [3H] (E)-N1-(2-methoxybenzyl)-cinnamidine; details: rat brain NR2B receptors; mean of replicates; read-out: Arithmetic Mean Ki
Sequence of native rat brain NR2B receptors (Q00960 27-1482, other chains not shown): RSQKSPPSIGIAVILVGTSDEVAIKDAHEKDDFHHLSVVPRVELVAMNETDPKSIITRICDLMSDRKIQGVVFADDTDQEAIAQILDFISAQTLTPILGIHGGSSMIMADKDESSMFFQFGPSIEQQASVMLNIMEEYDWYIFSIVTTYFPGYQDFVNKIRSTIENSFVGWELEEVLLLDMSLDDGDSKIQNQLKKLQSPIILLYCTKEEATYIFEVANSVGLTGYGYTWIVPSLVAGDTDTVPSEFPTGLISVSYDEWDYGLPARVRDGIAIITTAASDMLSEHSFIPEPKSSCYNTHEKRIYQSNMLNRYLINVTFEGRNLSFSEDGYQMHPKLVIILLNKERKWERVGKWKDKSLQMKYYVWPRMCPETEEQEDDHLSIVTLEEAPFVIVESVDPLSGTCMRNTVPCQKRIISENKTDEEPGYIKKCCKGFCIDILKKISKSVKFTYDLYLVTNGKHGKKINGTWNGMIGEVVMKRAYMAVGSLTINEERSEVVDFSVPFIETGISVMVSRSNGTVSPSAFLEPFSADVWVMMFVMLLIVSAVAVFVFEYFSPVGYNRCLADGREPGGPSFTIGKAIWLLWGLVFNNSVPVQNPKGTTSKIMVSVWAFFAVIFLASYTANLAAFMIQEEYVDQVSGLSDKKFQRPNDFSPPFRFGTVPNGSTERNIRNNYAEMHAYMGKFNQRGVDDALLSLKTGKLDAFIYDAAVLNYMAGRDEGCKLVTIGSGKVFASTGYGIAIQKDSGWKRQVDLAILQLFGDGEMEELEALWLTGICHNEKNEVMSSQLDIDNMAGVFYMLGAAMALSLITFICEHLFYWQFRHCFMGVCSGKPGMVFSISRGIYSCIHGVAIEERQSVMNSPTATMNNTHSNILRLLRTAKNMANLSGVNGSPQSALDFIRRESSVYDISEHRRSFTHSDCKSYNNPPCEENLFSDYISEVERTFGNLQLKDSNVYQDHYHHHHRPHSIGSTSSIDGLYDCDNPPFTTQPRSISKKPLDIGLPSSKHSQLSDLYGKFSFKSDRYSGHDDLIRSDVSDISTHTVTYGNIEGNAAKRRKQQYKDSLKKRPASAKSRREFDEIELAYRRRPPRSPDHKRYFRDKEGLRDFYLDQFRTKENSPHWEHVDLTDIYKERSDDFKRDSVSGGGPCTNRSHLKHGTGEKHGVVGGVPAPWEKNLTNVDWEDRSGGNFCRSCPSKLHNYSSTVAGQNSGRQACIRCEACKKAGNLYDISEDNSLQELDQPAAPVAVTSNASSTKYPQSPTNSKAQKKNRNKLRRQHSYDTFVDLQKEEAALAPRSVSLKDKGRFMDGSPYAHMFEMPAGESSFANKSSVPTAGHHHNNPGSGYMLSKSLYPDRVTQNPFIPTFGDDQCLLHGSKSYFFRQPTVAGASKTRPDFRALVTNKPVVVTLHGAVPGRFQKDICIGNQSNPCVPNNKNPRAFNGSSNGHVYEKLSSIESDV

Sequence of human NR1/NR2B (Q13224 27-1484, other chains not shown): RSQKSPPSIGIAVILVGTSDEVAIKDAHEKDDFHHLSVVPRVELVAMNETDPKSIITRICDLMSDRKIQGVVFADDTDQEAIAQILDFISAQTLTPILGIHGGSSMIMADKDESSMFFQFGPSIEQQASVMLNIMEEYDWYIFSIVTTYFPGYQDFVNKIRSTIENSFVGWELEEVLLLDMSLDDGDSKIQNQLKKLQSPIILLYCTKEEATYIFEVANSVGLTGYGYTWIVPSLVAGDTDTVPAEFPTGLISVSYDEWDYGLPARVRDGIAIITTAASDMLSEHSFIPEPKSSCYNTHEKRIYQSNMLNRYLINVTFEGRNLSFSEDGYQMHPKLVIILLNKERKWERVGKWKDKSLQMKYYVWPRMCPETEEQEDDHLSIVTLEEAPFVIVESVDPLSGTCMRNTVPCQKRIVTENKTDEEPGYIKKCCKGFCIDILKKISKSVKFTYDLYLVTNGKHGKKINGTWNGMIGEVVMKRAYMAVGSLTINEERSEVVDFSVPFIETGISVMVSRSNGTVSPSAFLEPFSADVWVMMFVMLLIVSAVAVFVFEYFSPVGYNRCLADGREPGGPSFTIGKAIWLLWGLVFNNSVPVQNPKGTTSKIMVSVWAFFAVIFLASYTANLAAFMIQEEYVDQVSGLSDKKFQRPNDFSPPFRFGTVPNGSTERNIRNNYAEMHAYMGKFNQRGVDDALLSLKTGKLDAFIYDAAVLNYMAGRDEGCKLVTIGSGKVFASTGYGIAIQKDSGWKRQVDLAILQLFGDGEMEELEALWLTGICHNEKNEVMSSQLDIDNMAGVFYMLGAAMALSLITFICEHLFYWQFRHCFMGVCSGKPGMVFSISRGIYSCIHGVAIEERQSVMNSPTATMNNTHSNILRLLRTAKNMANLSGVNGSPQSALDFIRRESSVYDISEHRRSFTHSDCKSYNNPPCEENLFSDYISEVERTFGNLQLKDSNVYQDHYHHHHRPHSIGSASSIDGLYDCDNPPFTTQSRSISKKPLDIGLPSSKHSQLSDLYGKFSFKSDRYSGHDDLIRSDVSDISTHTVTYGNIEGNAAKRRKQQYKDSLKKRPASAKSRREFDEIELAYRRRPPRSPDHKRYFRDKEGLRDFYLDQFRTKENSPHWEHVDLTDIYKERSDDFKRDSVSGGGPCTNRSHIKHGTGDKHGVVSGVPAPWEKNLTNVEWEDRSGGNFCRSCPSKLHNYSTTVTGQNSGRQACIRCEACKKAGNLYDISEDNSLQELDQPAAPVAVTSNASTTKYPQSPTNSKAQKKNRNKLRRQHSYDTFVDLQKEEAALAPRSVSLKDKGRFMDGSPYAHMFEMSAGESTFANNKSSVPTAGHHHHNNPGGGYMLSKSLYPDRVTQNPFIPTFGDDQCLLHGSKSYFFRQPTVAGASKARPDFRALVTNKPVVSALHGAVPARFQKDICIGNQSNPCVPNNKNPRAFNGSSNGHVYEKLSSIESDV
Sequence of human NR1/NR2A (Q12879 23-1464, other chains not shown): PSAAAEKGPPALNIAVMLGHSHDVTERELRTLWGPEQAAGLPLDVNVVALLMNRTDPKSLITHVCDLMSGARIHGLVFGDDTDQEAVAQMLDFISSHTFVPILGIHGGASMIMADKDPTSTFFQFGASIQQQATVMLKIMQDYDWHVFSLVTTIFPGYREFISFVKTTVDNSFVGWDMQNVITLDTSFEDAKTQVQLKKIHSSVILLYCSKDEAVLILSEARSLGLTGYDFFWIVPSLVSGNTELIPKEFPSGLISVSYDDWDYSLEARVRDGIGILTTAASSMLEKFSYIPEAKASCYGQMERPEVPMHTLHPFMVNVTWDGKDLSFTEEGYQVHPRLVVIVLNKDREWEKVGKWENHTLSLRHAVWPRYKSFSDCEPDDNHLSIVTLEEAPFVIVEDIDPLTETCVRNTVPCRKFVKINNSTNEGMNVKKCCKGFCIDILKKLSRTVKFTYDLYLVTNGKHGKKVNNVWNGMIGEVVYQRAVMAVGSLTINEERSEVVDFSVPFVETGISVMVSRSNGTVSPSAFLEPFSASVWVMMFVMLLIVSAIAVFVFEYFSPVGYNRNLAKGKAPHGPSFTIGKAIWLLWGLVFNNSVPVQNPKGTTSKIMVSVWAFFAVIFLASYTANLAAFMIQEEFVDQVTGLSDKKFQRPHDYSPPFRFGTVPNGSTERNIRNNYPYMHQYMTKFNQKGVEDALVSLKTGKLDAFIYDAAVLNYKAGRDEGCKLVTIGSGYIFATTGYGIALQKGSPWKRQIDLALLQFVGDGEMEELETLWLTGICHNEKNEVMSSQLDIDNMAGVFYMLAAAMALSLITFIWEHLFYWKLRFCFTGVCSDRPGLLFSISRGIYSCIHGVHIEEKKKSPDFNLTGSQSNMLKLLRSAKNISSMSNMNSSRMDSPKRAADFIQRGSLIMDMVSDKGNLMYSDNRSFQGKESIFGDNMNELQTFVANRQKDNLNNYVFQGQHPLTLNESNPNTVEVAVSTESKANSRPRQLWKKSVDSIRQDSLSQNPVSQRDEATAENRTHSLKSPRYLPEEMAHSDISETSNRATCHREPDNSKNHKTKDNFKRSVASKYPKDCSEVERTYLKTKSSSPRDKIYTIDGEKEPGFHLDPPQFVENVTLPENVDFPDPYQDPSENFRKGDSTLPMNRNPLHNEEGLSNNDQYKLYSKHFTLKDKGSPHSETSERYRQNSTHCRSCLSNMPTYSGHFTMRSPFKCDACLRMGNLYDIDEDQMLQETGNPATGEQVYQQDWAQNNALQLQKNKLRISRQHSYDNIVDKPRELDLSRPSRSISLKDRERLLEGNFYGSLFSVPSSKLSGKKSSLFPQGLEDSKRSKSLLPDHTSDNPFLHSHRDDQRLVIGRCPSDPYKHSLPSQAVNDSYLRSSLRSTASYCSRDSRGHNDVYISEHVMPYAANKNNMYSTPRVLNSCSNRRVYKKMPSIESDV

Work on `Cc1ccc(COC(=O)N2CC[C@H](CNc3nccn4cnnc34)C(F)(F)C2)cc1` [E1-1.2^B′] yielded an IC50 (human NR1/NR2B; Table 1.1B) of 20.7 nM, an IC50 (human NR1/NR2B; Table 1.3B) of 20.7 nM and an IC50 (human NR1/NR2B; Table 1.4B) of 20.7 nM. The IC50 (human NR1/NR2A) was greater than 10000 nM and the Ki [1] was 4.81 nM.

Compound `Cc1ccc(COC(=O)N2CC[C@H](CNc3cnc(C)cn3)C(F)(F)C2)cc1` [E1-21.26^B′] has an IC50 (human NR1/NR2B; Table 1.1B) of 29 nM, an IC50 (human NR1/NR2B; Table 1.3B) of 29 nM and an IC50 (human NR1/NR2B; Table 1.4B) of 29 nM.
